From article PMC8911550, “The Effects of Side-Chain Configurations of a Retro–Inverso-Type Inhibitor on the Human T-Cell Leukemia Virus (HTLV)-1 Protease” (Molecules, 2022)
Numbered stars: 1 amine (or outer) side, 2 acyl side, 3 side chain; on linkers, the order of the positions; unused ones are H or OH. Square brackets hold non-standard residues; d marks the D form. Ends that are not written are not given here. Peptide text beside a SMILES is read from it. X1 = CC(C)C[C@H](C(=O)[*:2])[C@H](O)C[C@H]1CCCN1[*:1]; d(aIle) = CC[C@H](C)[C@@H](N)C(=O)O; aIle = CC[C@@H](C)[C@H](N)C(=O)O

Columns and labels:
HTLV-1 protease = details: ref [20]; cited from earlier work
[1] = system: recombinant HTLV-1 protease; experiment: Cleavage of allo-Ile-containing substrates by recombinant HTLV-1 protease, analytical HPLC; format: biochemical, human T-cell leukemia virus type 1 (HTLV-1); details: decrease in substrate by analytical HPLC, Figure 3
Experimental: Each synthesized substrate (4–6) was then treated with the recombinant HTLV-1 protease, and the decrease in each substrate level was monitored using analytical HPLC [15].
Figure 3 Cleavage reaction of the substrates containing allo-Ile residues by the HTLV-1 protease: blue, original substrate; orange, substrate 4; gray, substrate 5; yellow, substrate 6.

[2] = target: T1, recombinant HTLV-1 protease (1-116, L40I) (Human T-cell leukemia virus 1, UniProt P10274, L489I); experiment: biochemical; format: biochemical, human T-cell leukemia virus type 1 (HTLV-1); details: for inhibitory activity relative to RI-inhibitor 3: effect of D-allo-Ile replacement, RI-inhibitor 3 as reference, recombinant protease
T1 construct: examined using the recombinant HTLV-1 protease (1-116, L40I) and a substrate dodecapeptide; made in house; host or cells: E. coli BL21(DE3)
T1 sequence (P10274 450-565 L489I): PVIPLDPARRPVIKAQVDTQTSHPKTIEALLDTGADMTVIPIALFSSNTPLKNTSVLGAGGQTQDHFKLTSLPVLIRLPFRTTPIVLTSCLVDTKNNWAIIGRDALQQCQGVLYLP
Experimental: The reaction mixture was directly analyzed by analytical HPLC with a C18 reversed-phase column. Each IC50 value of the RI-type inhibitor was obtained from the sigmoidal dose–response curve (Figure S6) calculated from the decrease in substrate concentration.
The reaction mixture was analyzed on a Cosmosil 5C18-ARII column (4.6 × 150 mm), employing a linear gradient of CH3CN (10–40%, 30 min) in aqueous 0.1% TFA. Each IC50 value was obtained from a sigmoidal dose–response curve obtained from the decrease in the substrate in the reaction mixture (Figure S3). Each experiment was repeated three times.

Molecule	cleavage rate compared with original substrate, in words [1]	IC50 [2]	inhibitory activity relative to RI-inhibitor 3 [2]	further results
C[C@@H](NC(=O)[C@H]1N(C(=O)[C@@H](O)[C@H](Cc2ccccc2)NC(=O)[C@@H](NC(=O)[C@@H](NC(=O)CN2CCOCC2)c2ccccc2)C(C)(C)C)CSC1(C)C)C(C)(C)C [KNI-10729]				inhibition at 50 nM (HTLV-1 protease): 79%
substrate 6: substrate 6 containing two allo-Ile residues at both sites (6,9-allo-Ile) (KGPPV[aIle]LP[aIle]QAP-NH2; N-terminus assumed; SMILES CC[C@@H](C)[C@H](NC(=O)[C@@H](NC(=O)[C@@H]1CCCN1C(=O)[C@@H]1CCCN1C(=O)CNC(=O)[C@@H](N)CCCCN)C(C)C)C(=O)N[C@@H](CC(C)C)C(=O)N1CCC[C@H]1C(=O)N[C@H](C(=O)N[C@@H](CCC(N)=O)C(=O)N[C@@H](C)C(=O)N1CCC[C@H]1C(N)=O)[C@H](C)CC)	clearly showed a lower cleavage rate than the original substrate			
CC[C@@H](C)[C@@H](NC(=O)[C@@H](CC(C)C)[C@H](O)C[C@H]1CCCN1C(=O)[C@H](NC(C)=O)[C@@H](C)CC)C(=O)N[C@@H](C(=O)N1CCC[C@@H]1C(=O)N1CCC[C@@H]1C(N)=O)C(C)C [RI-inhibitor 8] (Ac-[d(aIle)][X1][dI][dV][dP][dP]-NH2)		110 µM	doubled the inhibitory activity	
CC[C@@H](C)[C@@H](NC(C)=O)C(=O)N1CCC[C@@H]1C[C@@H](O)[C@H](CC(C)C)C(=O)N[C@@H](C(=O)N[C@@H](C(=O)N1CCC[C@@H]1C(=O)N1CCC[C@@H]1C(N)=O)C(C)C)[C@@H](C)CC [RI-inhibitor 9] (Ac-[dI][X1][d(aIle)][dV][dP][dP]-NH2)		130 µM	doubled the inhibitory activity	
substrate 4: substrate 4 containing an allo-Ile residue at the prime site (9-allo-Ile) (KGPPVILP[aIle]QAP-NH2; N-terminus assumed; SMILES CC[C@@H](C)[C@H](NC(=O)[C@@H]1CCCN1C(=O)[C@H](CC(C)C)NC(=O)[C@@H](NC(=O)[C@@H](NC(=O)[C@@H]1CCCN1C(=O)[C@@H]1CCCN1C(=O)CNC(=O)[C@@H](N)CCCCN)C(C)C)[C@@H](C)CC)C(=O)N[C@@H](CCC(N)=O)C(=O)N[C@@H](C)C(=O)N1CCC[C@H]1C(N)=O)	cleaved at a slightly lower rate than the original substrate			
CC[C@H](C)[C@@H](NC(=O)[C@@H](CC(C)C)[C@H](O)C[C@H]1CCCN1C(=O)[C@H](NC(C)=O)[C@@H](C)CC)C(=O)N[C@@H](C(=O)N1CCC[C@@H]1C(=O)N1CCC[C@@H]1C(N)=O)C(C)C [RI-inhibitor 10] (Ac-[d(aIle)][X1][d(aIle)][dV][dP][dP]-NH2)		85 µM	tripled the inhibitory activity	
substrate 5: substrate 5 containing an allo-Ile residue at the non-prime site (6-allo-Ile) (KGPPV[aIle]LPIQAP-NH2; N-terminus assumed; SMILES CC[C@@H](C)[C@H](NC(=O)[C@@H](NC(=O)[C@@H]1CCCN1C(=O)[C@@H]1CCCN1C(=O)CNC(=O)[C@@H](N)CCCCN)C(C)C)C(=O)N[C@@H](CC(C)C)C(=O)N1CCC[C@H]1C(=O)N[C@H](C(=O)N[C@@H](CCC(N)=O)C(=O)N[C@@H](C)C(=O)N1CCC[C@H]1C(N)=O)[C@@H](C)CC)	clearly showed a lower cleavage rate than the original substrate			
CC[C@@H](C)[C@@H](NC(=O)[C@@H](CC(C)C)[C@H](O)C[C@H]1CCCN1C(=O)[C@H](NC(C)=O)[C@H](C)CC)C(=O)N[C@@H](C(=O)N1CCC[C@@H]1C(=O)N1CCC[C@@H]1C(N)=O)C(C)C [RI-inhibitor 3] (Ac-[dI][X1][dI][dV][dP][dP]-NH2)		240 µM		
